Patent US6319952A, “Compositions and methods for reversibly increasing permeability of biomembranes” (D-Pharm Ltd., priority 1997, dated 2001)
Entries after “also recorded” stand apart in the source; their conditions may differ.

Columns and labels:
rodent brains = assay: Neurotoxicity by histopathology on fixed sectioned rodent brains; format: in vivo, rat; conditions: 20 or 200 μg/ml via internal carotid artery, 3 or 72 hr post infusion
Experimental: Potential neurotoxicity after treatment with M 3,14 was assessed by means of histopathology on fixed sectioned rodent brains.
Nine rodent brains were fixed in 10% neutral buffered formalin. These brains were obtained from rats infused with either buffer, 20 μg/ml, or 200 μg/ml M3,14 via the left internal carotid artery. The experiment was terminated and the samples collected either 3 or 72 hr. post infusion. Specimen and group identification were as follows:
control: 3 hr (2), 72 hr (1);
Upon receipt, coronal sections were prepared through the forebrain, midbrain and hindbrain. The right-left orientation was identified by placing a small cut in the cortex on the right side of the section. The sections were embedded as a single block, processed routinely in paraffin, sectioned at five microns and stained with hematoxylin and eosin. Sections were evaluated qualitatively.

[1] = tested on: bovine brain capillary endothelial cells in co-culture with astrocytes; assay: Determination of lactate dehydrogenase (LDH) in the medium of endothelial cells in coculture; format: cell-based
Experimental: In the same experiments, lactate dehydrogenase was assayed in the medium in order to check the toxicity. This cytoplasmic enzyme is not able to cross the cellular membrane except if the membrane integrity is destroyed. An increase in the release of Lactate Dehydrogenase (LDH) indicates a breakdown of the cellular membrane, leading to a cellular death. In other words, the LDH determination in the medium allows an assessment of cell viability. […]

[2] = tested on: blood-brain barrier (BBB); assay: Effect of branched chain fatty acids on BBB permeability by qualitative Evan's Blue (EB) evaluation in rats; format: in vivo, rat (male Sprague-Dawley)
Experimental: Evaluation of Effect of Branched Fatty Acids on Blood-brain Barrier Permeability
The experiments were carried out on male Sprague-Dawley rats weighing 250-320 gr. They were anesthetized with Rampun-Imalgen. The right common carotid artery was exposed.
The test compounds were dissolved in 0.1M phosphate buffered physiological saline (pH=7.4) at the following test concentrations: 1.6; 8; 20; 40; 200 and 1000 μg/ml.
The test compound was infused into the right common carotid artery at a rate of 6 ml/min. for 30 s. The control rats were infused with buffer. Evan's Blue (EB) solution at a concentration of […] (2 g Evan's Blue, 0.9 g NaCl in 100 ml water) was injected intravenously 50 minutes prior to the termination of the experiment.
In the case of 45 min experiment, five minutes prior to the infusion of the tested material, 4 ml/kg body wt dose of Evans Blue solution was injected intravenously.
At the end of the experimental time period the animals were perfused with 100 ml of saline solution through the heart and decapitated. The degree of BBB opening, in terms of extravasation of Evan's Blue albumin, was graded on the basis of visual assessment of the degree of staining of the brain ato the method of Rapoport et al. (Rapoport et al., 1980, Amer. J. Physiol. 258, 421-431), and the results are presented in Tables 1 and 2.
The results presented are qualitative with four degrees of Evan's Blue extravasation according to Rapoport et al. Minus signs represents no staining and three plus signs represent maximal staining.

[3] = tested on: bovine brain capillary endothelial cells (actin filaments); assay: Actin staining of endothelial cells (fluorescent microscopy); format: cell-based
Experimental: To investigate the origin of this modification of the permeability, fluorescent microscopy studies were undertaken. Actin filaments were localized with bodipy phallo?din (explanations in section 7.1.).
The medium was removed and filter-grown endothelial cells were washed gently twice with Ringer-Hepes buffer.
Filter-grown endothelial cells were fixed in 4% PAF (paraformadehyde, in PHS buffer supplemented with MgCl2, 2 mM and EGTA, 10 mM) for 15 min at 4° C.
PAF was removed and filter-grown endothelial cells were washed once with PHEMS buffer. The filter-grown endothelial cells can be stored in PHEMS buffer at 4° C.
The filter-grown endothelial cells were cut up in eight pieces in a large PHEMS buffer drop and stored in PHEMS. One piece was permeabilized with acetone at -20° C. for 1 min then stored in PHEMS buffer.
Actin filaments were localized with bodipy phallo?din (Molecular Probes, Inc.). The stain was dissolved in 1.5 ml of methanol (200 units/ml) but was used at 5 units/ml. 5 μl of stock solution was evaporated and redissolved in 200 μl of PHS buffer.
1/8 of permeabilized filter-grown endothelial cells was covered with 25 to 50 μl of stain solution, 30 min at room temperature in darkroom. The filter bearing the endothelial cells was rinsed twice with PHEMS buffer, once with water.
The filter-grown endothelial cells were mounted cell-side up on a microscope slide in mowiol. And was examined on a Leitz DMR microscope using oil immersion objectives.

## CCCCCCCCCCCCCCC(CCC)C(=O)O (stereo not drawn) [M 3/14, 2-propylhexadecanoic acid]
Rodent brains; listed as M 3,14
  histopathology (neurotoxicity): no treatment related changes observed
Rodent brains; listed as M3,14
  histopathology (neurotoxicity): No treatment related changes were observed
[1]; 0.16 mg/ml, 24 hrs incubation
  LDH release: significant increase in LDH release
  cytotoxic effect: cytotoxic effect
[1]; 1 hr incubation, paracellular study
  LDH release: no significant increase in LDH release
[1]; 1 hr incubation, transcellular study
  LDH release: No increase in release of LDH
[1]; 1 hr incubation, listed as DP-BFA
  cytotoxic effect: No cytotoxic effect; also recorded: not associated with cytotoxic effects
[1]; 24 hrs reversibility study
  cytotoxic effect: No cytotoxic effect
[1]; after 1 hr and after 24 hrs reversibility study
  LDH release: No increase in release of LDH
[1]; reversibility kinetic study
  LDH release: No increase in release of LDH
  cytotoxic effect: No cytotoxic effect
[2]; 1.6 μg/ml (5 μM/ml), 180 min
  Visual EB: -
[2]; 8 μg/ml (25 μM/ml), 180 min
  Visual EB: +
[2]; 20 μg/ml (62.5 μM/ml), 180 min
  Visual EB: +
[2]; 40 μg/ml (125 μM/ml), 45 min
  Visual EB: ++
[2]; 40 μg/ml (125 μM/ml), 180 min
  Visual EB: ++
[2]; 125 μM, 180 min, intracarotid infusion
  Visual EB: ++
[2]; 200 μg/ml (625 μM/ml), 45 min
  Visual EB: +++
[2]; 625 μM, 45 min, intracarotid infusion
  Visual EB: +++
[2]; 1000 μg/ml (3125 μM/ml), 45 min
  Visual EB: +++
[2]; Table 1 compounds
  BBB permeability enhancement, potency ranking: most potent BBB permeability enhancer
[3]; 0.08 mg/ml, 24 hrs
  endothelial cell morphology: significant morphological changes
  stress fibers (actin staining): increase in numerous densely packed stress fibers
[3]; 0.16 mg/ml 1 hr, then 24 hrs without DP-BFA
  stress fibers (actin staining): less densely packed stress fibers
[3]; 0.16 mg/ml, 1 hr
  endothelial cell morphology: significant morphological changes
  stress fibers (actin staining): increase in numerous densely packed stress fibers
[3]; 0.16 mg/ml, 24 hrs
  interendothelial cell gaps: Interendothelial cell gaps in the monolayer could be seen
